We go through 24 molecules from patent US20260042764A1, “COMPOSITIONS AND METHODS FOR INHIBITION OF KRAS” (TheRas, Inc., priority 2022, published 2026).

The structures appear in SMILES notation.

In assay [1] the target is T1, Avi-KRAS G12V (1-169) GppNHp/RAF1 RBD-3xFLAG (52-151) (Homo sapiens, UniProt P01116, G12V).
T1 construct: Avi-KRAS G12V (1-169)
Nature of the assay: Raf1-KRAS G12V-GppNHP disruption HTRF assay (Biological Example 1). In kind it is binding. The conditions noted are these: KRAS G12V, GppNHp-loaded; Table 11. The method, then: (§1) A protein:protein interaction (PPI) Homogeneous Time Resolved Fluorescence (HTRF) assay was used to determine the effectiveness of compounds of the present disclosure in disrupting KRAS protein and effector RAF1 binding.
(§2) The assay buffer included: 50 mM Tris pH 7.5, 100 mM NaCl, 5 mM MgCl2, 0.1% BSA, 0.01% Tween, and 10% DMSO. The bead buffer included: 50 mM Tris pH 7.5, and 0.01% Tween 20. Assay volume of 20 μL was used in a 384 well plate-low volume format.
(§3) The HTRF assay employed the following protocol:
(§4) Protein mix was prepared in assay buffer, and dispensed on plates, 10 μL per well, then incubated for 1 h at room temperature, with 700 rpm shaking, Reagents mix was prepared and dispensed on plates, 10 μL per well, then incubated for 1 h at room temperature, with 700 rpm shaking.
(§5) Data was reported as percentage of activity, with DMSO as 100%. Data was plotted and analyzed using Prism 8.

The target in assay [2] is T2, Avi-KRAS G12R (1-169) GppNHp/RAF1 RBD-3xFLAG (52-151) (Homo sapiens, UniProt P01116, G12R).
T2 construct: Avi-KRAS G12R (1-169)
T2 sequence (P01116 1-169 isoform P01116-2 G12R): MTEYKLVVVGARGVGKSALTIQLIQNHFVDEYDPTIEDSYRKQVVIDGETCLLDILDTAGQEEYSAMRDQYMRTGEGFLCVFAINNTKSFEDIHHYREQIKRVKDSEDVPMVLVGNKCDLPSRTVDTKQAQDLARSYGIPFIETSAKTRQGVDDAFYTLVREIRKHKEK
Nature of the assay: Raf1-KRAS G12R-GppNHP disruption HTRF assay (Biological Example 1). The conditions noted are these: KRAS G12R, GppNHp-loaded; Table 11. In kind it is binding. The method, then: as §1, §2, §3, §4, §5
In general terms: Time-resolved FRET reads energy transfer from a long-lived donor to a nearby acceptor.

Assay [3] concerns the target T3, Avi-KRAS WT (1-169) GppNHp/RAF1 RBD-3xFLAG (52-151) (Homo sapiens, UniProt P01116).
T3 construct: Avi-KRAS WT (1-169)
Nature of the assay: Raf1-KRAS WT-GppNHP disruption HTRF assay (Biological Example 1). Format: binding. The conditions noted are these: KRAS WT, GppNHp-loaded; Table 11. The method, then:
as §1, §2, §3, §4, §5

The target in assay [4] is T4, Avi-KRAS G12D (1-169) GppNHp/RAF1 RBD-3xFLAG (52-151) (Homo sapiens, UniProt P01116, G12D).
T4 construct: Avi-KRAS G12D (1-169)
T4 sequence (P01116 1-169 isoform P01116-2 G12D): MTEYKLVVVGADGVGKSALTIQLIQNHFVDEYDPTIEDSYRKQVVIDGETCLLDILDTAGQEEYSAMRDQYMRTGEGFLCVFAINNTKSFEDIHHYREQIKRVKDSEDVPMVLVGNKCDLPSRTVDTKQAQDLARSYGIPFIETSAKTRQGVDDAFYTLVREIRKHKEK
Nature of the assay: Raf1-KRAS G12D-GppNHP disruption HTRF assay (Biological Example 1). Format: binding. The conditions noted are these: KRAS G12D, GppNHp-loaded; Table 11. The method, then: as §1, §2, §3, §4, §5

Another assay concerns GP2d cells (KRAS G12D). In words: Cell-based pERK HTRF assay in GP2d cell (Biological Example 2). As to conditions: GP2d, GP2d (KRAS G12D) cells, pERK HTRF. The method, then:
A pERK assay (Perkin Elmer) was used to determine the effectiveness of compounds in disrupting KRAS G12D protein/effector signaling in cells.
On Day 1, cells (GP2d) were seeded into 96-well plates at 3×10^4 cells/well in 80 μL complete growth media (DMEM, 10% FBS).
On Day 2, cells were treated with compounds at 0.25% DMSO. The source plate was created with compounds diluted in media at 5-fold the final assay concentration. The compounds were run in a 9-point concentration curve starting at 1 μM or in a 9-point concentration curve starting at 100 nM, with a half-log dilution between concentrations. Twenty μL was transferred onto the cell plates (final volume in wells was 100 μL). Plates were harvested after 60 min incubation by aspirating media and adding kit-supplied 1x supplemented lysis buffer to all wells (50 μL per well). Plates were then placed on a plate shaker and incubated at 850 rpm for an additional 30 min.
Antibody mixture solution was prepared by diluting aliquoted d2 and Eu Cryptate antibodies 1:20 in kit supplied detection buffer, and mixing the diluted antibodies solutions (1:1 v:v).
Samples were homogenized by pipetting up and down and then transferred (16 μL of cell lysates) from the 96-well cell culture plate to two wells of the HTRF 384-well detection plate containing the antibody solution. Plates were centrifuged (524 g for 1 min) and allowed to incubate between 4 and 24 h at room temperature. Maximum signal is reached after 4 h incubation time and remains stable over a period of 24 hours. Therefore, readings can be made between 4 and 24 h of incubation. Plates were centrifuged again (524 g for Imin), then analyzed on the EnVision plate reader using the following settings: Excitation 320 nm, Bandwidth 75 nm; Emission 615 nm, Bandwidth 85 nm; Gain 100%; Flashes 100; Lag 60 μs.

T1 sequence (P01116 1-169 isoform P01116-2 G12V): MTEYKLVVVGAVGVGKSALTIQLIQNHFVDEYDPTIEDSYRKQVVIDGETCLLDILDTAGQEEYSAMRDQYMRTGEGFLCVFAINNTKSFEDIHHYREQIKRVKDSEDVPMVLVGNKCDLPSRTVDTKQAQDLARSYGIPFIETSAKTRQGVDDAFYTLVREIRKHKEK
T3 sequence (P01116 1-169 isoform P01116-2): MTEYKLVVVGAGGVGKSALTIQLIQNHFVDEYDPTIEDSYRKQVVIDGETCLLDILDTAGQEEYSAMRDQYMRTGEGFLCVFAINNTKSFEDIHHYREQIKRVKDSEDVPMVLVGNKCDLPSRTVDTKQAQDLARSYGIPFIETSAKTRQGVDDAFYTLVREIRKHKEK

As for `CN(c1nc(OC[C@@]23CCCN2C[C@H](F)C3)nc2c(F)c(-c3ccc(F)c4sc(N)nc34)c(C(F)(F)F)cc12)[C@H]1C[C@@H](O)C1` (atropisomer, axis not shown) [Compound 8], the IC50 was 0.1 to 1 µM in assay [1], 1 to 10 µM in assay [2], 0.1 to 1 µM in assay [3] and 0.1 to 1 µM in assay [4].
In the case of `CN(c1nc(OCC2(CN3CCOCC3)CC2)nc2c(F)c(-c3ccc(F)c4sc(N)nc34)c(C(F)(F)F)cc12)[C@H]1C[C@@H](O)C1` (atropisomer, axis not shown) [Compound 16], the 50% inhibitory concentration (IC50) in assay [1], in assay [2], in assay [3] and in assay [4] was 1 to 10 µM each time.
Regarding `CO[C@@H]1C[C@@H](COc2nc(N(C)[C@H]3C[C@@H](O)C3)c3cc(C(F)(F)F)c(-c4ccc(F)c5sc(N)nc45)c(F)c3n2)N(C)C1` (atropisomer, axis not shown) [Compound 17], the half-inhibitory concentration (IC50) in assay [1] was over 10 µM; in assay [3] it was 1 to 10 µM; in assay [4], over 10 µM.
As for `Nc1nc2c(-c3c(C(F)(F)F)cc4c(N[C@H]5CC[C@@H](O)C5)nc(OCC56CCCN5CCC6)nc4c3F)ccc(F)c2s1` (atropisomer, axis not shown) [Compound 60], the 50% inhibitory concentration (IC50) in assay [1] was over 10 µM; in assay [3], 1 to 10 µM; in assay [4], 1 to 10 µM.
Regarding `Nc1nc2c(-c3c(C(F)(F)F)cc4c(N[C@H]5CC[C@H](O)C5)nc(OCC56CCCN5CCC6)nc4c3F)ccc(F)c2s1` (atropisomer, axis not shown) [Compound 61], the results for the IC50 in assay [1], in assay [3] and in assay [4] were over 10 µM, 1 to 10 µM and 1 to 10 µM, respectively.
On to `CN(c1nc(OCC23CCCN2CCC3)nc2c(F)c(-c3ccc(F)c4sc(N)nc34)c(C(F)(F)F)cc12)[C@@H]1CC[C@H](O)C1` (atropisomer, axis not shown) [Compound 62], for which the IC50 in assay [1] was over 10 µM; in assay [2], 1 to 10 µM; in assay [3], 1 to 10 µM; in assay [4], 1 to 10 µM.
On to `Nc1nc2c(-c3c(C(F)(F)F)cc4c(N[C@H]5CCC[C@@H](O)C5)nc(OCC56CCCN5CCC6)nc4c3F)ccc(F)c2s1` (atropisomer, axis not shown) [Compound 67], for which the 50% inhibitory concentration (IC50) in assay [1] is over 10 µM; in assay [3] it was 1 to 10 µM; in assay [4] it was 1 to 10 µM.
Take `CN(c1nc(OCC2(CN3CCOCC3)CC2)nc2c(F)c(-c3ccc(F)c4sc(N)c(C#N)c34)c(C(F)(F)F)cc12)[C@H]1C[C@@H](O)C1` (atropisomer, axis not shown) [Compound 122]: the IC50 in assay [1], in assay [2], in assay [3] and in assay [4] was 0.1 to 1 µM in each case.
Consider `CN(c1nc(OC[C@@]23CCCN2C[C@H](F)C3)nc2c(F)c(-c3ccc(F)c4sc(N)c(C#N)c34)c(C(F)(F)F)cc12)[C@H]1C[C@@H](F)C1` (atropisomer, axis not shown) [Compound 160], for which the half-inhibitory concentration (IC50) in assay [1] is 1 to 10 µM; in assay [2] it was 0.1 to 1 µM; in assay [3], 0.1 to 1 µM; in assay [4], 0.1 to 1 µM.
Regarding `CN(c1nc(OC[C@@]23CCCN2C[C@H](F)C3)nc2c(F)c(-c3ccc(F)c4sc(N)c(C#N)c34)c(C(F)(F)F)cc12)[C@]1(CC#N)C[C@H](O)C1` (atropisomer, axis not shown) [Compound 249], the IC50 in assay [1] was 1 to 10 µM; in assay [2], 0.1 to 1 µM; in assay [3], 0.1 to 1 µM; in assay [4] it was 0.1 to 1 µM.
Regarding `CN(c1nc(OCC23CCCN2CCC3)nc2c(F)c(-c3ccc(F)c4sc(N)nc34)c(C(F)(F)F)cc12)C1CC(O)C12CCCC2` (single isomer, unassigned) [Compound 10], the IC50 in assay [1], in assay [2], in assay [3] and in assay [4] was over 10 µM throughout.
Regarding `CN(c1nc(OCC23CCCN2CCC3)nc2c(F)c(-c3ccc(F)c4sc(N)nc34)c(C(F)(F)F)cc12)C1CC(CO)C1` (centres unmarked) [Compound 4], the IC50 is over 10 µM in assay [1], over 10 µM in assay [2], 1 to 10 µM in assay [3] and 1 to 10 µM in assay [4].
As to `CN(c1nc(OCC23CCCN2CCC3)nc2c(F)c(-c3ccc(F)c4sc(N)nc34)c(-c3ccoc3)cc12)[C@H]1C[C@@H](O)C1` [Compound 6], the values for the IC50 in assay [1], in assay [3] and in assay [4] were over 10 µM, 1 to 10 µM and 1 to 10 µM, respectively.
For the molecule `Nc1nc2c(-c3c(C(F)(F)F)cc4c(N5CCC(CO)CC5)nc(OCC56CCCN5CCC6)nc4c3F)ccc(F)c2s1` [Compound 43], the IC50 in assay [1] lay in the range of 1 to 10 µM; in assay [2] it was 1 to 10 µM; in assay [3], 0.1 to 1 µM; in assay [4], 0.1 to 1 µM.
Turning to `Nc1nc2c(-c3c(C(F)(F)F)cc4c(N5CCC(O)CC5)nc(OCC56CCCN5CCC6)nc4c3F)ccc(F)c2s1` [Compound 51], the half-maximal inhibitory concentration (IC50) was over 10 µM in assay [1], 1 to 10 µM in assay [3] and 1 to 10 µM in assay [4].
Turning to `Nc1nc2c(-c3c(C(F)(F)F)cc4c(N5CC6CCC(C5)C6O)nc(OCC56CCCN5CCC6)nc4c3F)ccc(F)c2s1` (centres unmarked) [Compound 52], the IC50 in assay [1], in assay [3] and in assay [4] was 1 to 10 µM in each case.
On to `Nc1nc2c(-c3c(C(F)(F)F)cc4c(N5CCCC(O)C5)nc(OCC56CCCN5CCC6)nc4c3F)ccc(F)c2s1` (centres unmarked) [Compound 53], for which the IC50 in assay [1] was over 10 µM; in assay [2] it was 1 to 10 µM; in assay [3], over 10 µM; in assay [4], 1 to 10 µM.
Regarding `Nc1nc2c(-c3c(C(F)(F)F)cc4c(N5CCCC(CO)C5)nc(OCC56CCCN5CCC6)nc4c3F)ccc(F)c2s1` (centres unmarked) [Compound 54], the concentration for half-maximal inhibition (IC50) was over 10 µM in assay [1], over 10 µM in assay [3] and 1 to 10 µM in assay [4].
Turning to `Nc1nc2c(-c3c(C(F)(F)F)cc4c(N5CCC(O)C5)nc(OCC56CCCN5CCC6)nc4c3F)ccc(F)c2s1` (centres unmarked) [Compound 55], the concentration for half-maximal inhibition (IC50) in assay [1] was over 10 µM; in assay [2], over 10 µM; in assay [3] it was 1 to 10 µM; in assay [4] it was 1 to 10 µM.
`Nc1nc2c(-c3c(C(F)(F)F)cc4c(N5CCC(CO)C5)nc(OCC56CCCN5CCC6)nc4c3F)ccc(F)c2s1` (centres unmarked) [Compound 56]: the IC50 is over 10 µM in assay [1], over 10 µM in assay [2], 1 to 10 µM in assay [3] and 1 to 10 µM in assay [4].
For `Nc1nc2c(-c3c(C(F)(F)F)cc4c(N5CC(CO)C5)nc(OCC56CCCN5CCC6)nc4c3F)ccc(F)c2s1` [Compound 57], the IC50 is over 10 µM in assay [1], 1 to 10 µM in assay [2], 1 to 10 µM in assay [3] and 1 to 10 µM in assay [4].
With `N#Cc1c(N)sc2c(F)ccc(-c3c(C(F)(F)F)cc4c(N5CC6(CC(O)C6)C5)nc(OC[C@@]56CCCN5C[C@H](F)C6)nc4c3F)c12` [Compound 58], the IC50 (in assay [1]; in the assay on GP2d cells (KRAS G12D); in assay [3]; in assay [4]) was 0.1 to 1 µM throughout.
As for `Nc1nc2c(-c3c(C(F)(F)F)cc4c(N[C@H]5CC[C@H](O)CC5)nc(OCC56CCCN5CCC6)nc4c3F)ccc(F)c2s1` [Compound 63], the IC50 is over 10 µM in assay [1], 1 to 10 µM in assay [3] and 1 to 10 µM in assay [4].
`CCC(=O)N1C2CCC1CN(c1nc(OC[C@@]34CCCN3C[C@H](F)C4)nc3c(F)c(-c4ccc(F)c5sc(N)nc45)c(C(F)(F)F)cc13)C2` [Compound 97]: the half-inhibitory concentration (IC50) in assay [1], in assay [3] and in assay [4] was over 10 µM throughout.

The IC50 is the point on the concentration scale where inhibition reaches its midpoint. The low end stands for inhibition by little substance, the high end for a need for much substance.
